Laboratory results: patent US20260315604A1, “OTUB1 Small-Molecule Binders and OTUB1-recruiting Deubiquitinase-targeting Chimeras (DUBTACs)” (ICAHN SCHOOL OF MEDICINE AT MOUNT SINAI, priority 2023, published 2026)

Each compound was assayed against T1, Human OTUB1 wild-type (Homo sapiens, UniProt Q96FW1) (assay: Covalent modification of OTUB1 (adduct formation), mass spectrometry-based assay (OTUB1 covalent binders; selected CFTR or cGAS based bivalent compounds)). Conditions: covalent adduct formation with OTUB1 protein.
T1 construct: His tag (N); made in house; host or cells: E. coli BL21-CodonPlus (DE3)-RIPIL
T1 sequence (Q96FW1 whole entry): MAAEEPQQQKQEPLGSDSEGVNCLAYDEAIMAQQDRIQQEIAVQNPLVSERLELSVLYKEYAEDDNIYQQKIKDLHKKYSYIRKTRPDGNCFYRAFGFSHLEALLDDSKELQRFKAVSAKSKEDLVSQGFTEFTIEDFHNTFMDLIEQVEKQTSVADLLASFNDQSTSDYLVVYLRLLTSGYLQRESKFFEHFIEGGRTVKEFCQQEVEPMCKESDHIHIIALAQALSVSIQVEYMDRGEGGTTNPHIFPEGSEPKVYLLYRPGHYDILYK
Assay type: binding
Description: OTUB1 covalent binders were tested for their ability to form the covalent adduct with OTUB1 protein using a mass-spectrometry based assay.
Example 389. Assessment of the Covalent Modification of OTUB1 Protein by Selected OTUB1 Covalent Binders Using a Mass Spectrometry-Based Assay (FIG. 1)
OTUB1 protein (10 μM) was incubated with selecting compounds (2500 μM) at RT for 1 h. The adduct was qualified by mass spectrometry-based assays.
Example 398. Assessment of the Covalent Modification of OTUB1 Protein by Selected CFTR Based Bivalent Compounds Using Mass Spectrometry-Based Assay (FIG. 10)
OTUB1 protein (10 μM) was incubated with selecting bivalent compounds (2500 μM) at RT for 1 h. The adduct was qualified by mass spectrometry-based assays.
Human OTUB1 wild-type (NM_017670.3) and C23S mutation genes were optimized based on the codon preference of E. coli, synthesized and cloned into pET15b vector with a N-terminal His tag by Genscript, respectively. The plasmid was transferred to BL21-CodonPlus (DE3)-RIPIL Competent Cell (230280, Agilent Technologies) and the recombinant protein was induced expressed by 0.5 mM IPTG at 16° C. with shaking 200 rpm for 18 h. Induced cells were harvested by centrifugation and resuspended in cold lysis buffer (50 mM Tris-H—Cl pH 7.5, 150 mM NaCl, 25 mM imidazole pH 7.5, 0.01% IGEPAL, 5% Glycerol) in the presence of Pierce Protease Inhibitor tablets (PIA32963, Fisher Scientific) and 2 mM TCEP pH 7.5.
The cells were lysed by sonication, clarified by centrifugation, and the filtered supernatant loaded onto a 5 ml HisTrap HP affinity column (17524802, Cytiva) in AKTA system. The His-recombinant protein bound to column was washed using buffer A (50 mM Tris-HCl pH 7.5, 150 mM NaCl, 25 mM imidazole pH 7.5, 0.01% IGEPAL, 5% Glycerol) and eluted with buffer B (50 mM Tris-HCl pH 7.5, 150 mM NaCl, 250 mM imidazole pH 7.5, 0.01% IGEPAL, 5% Glycerol). The eluted fractions containing OTUB1 protein were concentrated and subjected to size exclusion chromatography using a 320 mL HiLoad 26/600 Superdex 200 pg column (28989336, Cytiva) under the buffer condition ([…] Tris-HCl pH 7.5, 150 mM NaCl, and 2 mM TCEP pH 7.5). The eluted fractions containing OTUB1 protein were concentrated, divided into aliquots and stored at −80° C. freezer for further usage.
Quality control of the OTUB1 proteins was performed by SDS-PAGE, Nanodrop and mass spectrometry.
Mass Spectrometry-Based Analysis of OTUB1-Covalent Ligand Adducts
To screen the covalent ligands, recombinant OTUB1 protein (10 μM) was respectively incubated with DMSO, EN523 or seven novel ligands (2500 μM) in reaction buffer (50 mM Tris-HCl pH 7.5, 150 mM NaCl, and 0.5 mM TCEP pH 7.5) for 1 h at room temperature.
Then, the total 500 μL reaction solution was exchanged and concentrated to 50 μL 50 mM ammonium bicarbonate with a 10 kDa MWCO centrifugal filter unit (UFC901024, Millipore) and diluted in MS buffer (30% ACN, 0.2% FA) to a final concentration of […]. Mass spectrometry detection was performed by an Agilent LC/MSD Time-Of-Flight (TOF) mass spectrometer (Agilent Technologies) equipped with an electrospray ion source. The data was analyzed by TOF Protein Confirmation Software. All experiments were performed in duplicate.

% of OTUB1 modified [%]	Structure (SMILES)
75	CN(C)C/C=C/C(=O)N1C2CCC1C(=O)N(C)C2 (stereo not shown) [XS197-4, (E)-8-(4-(dimethylamino)but-2-enoyl)-3-methyl-3,8-diazabicyclo[3.2.1]octan-2-one]
90	CN(C)C/C=C/C(=O)N1C2CC1CN(C(=O)c1ccc(C3CCN(C)C3)s1)C2 (stereo not shown) [XS197-73, (E)-4-(dimethylamino)-1-(3-(5-(1-methylpyrrolidin-3-yl)thiophene-2-carbonyl)-3,6-diazabicyclo[3.1.1]heptan-6-yl)but-2-en-1-one]
85	CN(C)C(C)(C)C#CC(=O)N1CC(NC(=O)c2cc3ccccc3s2)C1 [XS224-156, N-(1-(4-(dimethylamino)-4-methylpent-2-ynoyl)azetidin-3-yl)benzo[b]thiophene-2-carboxamide]
10	Cc1ccc(C(=O)N2CCC3(CC2)CN(C(=O)/C=C/CN(C)C)C3)s1 [XS185-96, (E)-4-(dimethylamino)-1-(7-(5-methylthiophene-2-carbonyl)-2,7-diazaspiro[3.5]nonan-2-yl)but-2-en-1-one]
25	CC(=O)N1CC2(CC(C(=O)N3CC4CC(C3)N4C(=O)/C=C/CN(C)C)C2)C1 [XS197-133, (E)-1-(3-(2-acetyl-2-azaspiro[3.3]heptane-6-carbonyl)-3,6-diazabicyclo[3.1.1]heptan-6-yl)-4-(dimethylamino)but-2-en-1-one]
90	CN(C)C/C=C/C(=O)N1C2CC1CN(C(=O)c1cc3ccccc3s1)C2 [XS190-46, (E)-1-(3-(benzo[b]thiophene-2-carbonyl)-3,6-diazabicyclo[3.1.1]heptan-6-yl)-4-(dimethylamino)but-2-en-1-one]
70	CN(C)C/C=C/C(=O)N1C2CC1CN(C(=O)c1csc3c1CCCC3)C2 [XS190-49, (E)-4-(dimethylamino)-1-(3-(4,5,6,7-tetrahydrobenzo[b]thiophene-3-carbonyl)-3,6-diazabicyclo[3.1.1]heptan-6-yl)but-2-en-1-one]
80	CN(C)C/C=C/C(=O)N1C2CCC1C(=O)N(C1CCCC1)C2 (stereo not shown) [XS190-144, (E)-3-cyclopentyl-8-(4-(dimethylamino)but-2-enoyl)-3,8-diazabicyclo[3.2.1]octan-2-one]
90	CC(=O)N1CCC(c2ccc(N3CC4CCC(C3=O)N4C(=O)/C=C/CN(C)C)s2)CC1 (stereo not shown) [XS197-145, (E)-3-(5-(1-acetylpiperidin-4-yl)thiophen-2-yl)-8-(4-(dimethylamino)but-2-enoyl)-3,8-diazabicyclo[3.2.1]octan-2-one]
40	Cc1cnc(NC(=O)C2(O)CN(C(=O)/C=C/CN(C)C)C2)s1 [XS209-39, (E)-1-(4-(dimethylamino)but-2-enoyl)-3-hydroxy-N-(5-methylthiazol-2-yl)azetidine-3-carboxamide]
47	Cc1ccc(NC(=O)C2(O)CN(C(=O)/C=C/CN(C)C)C2)s1 [XS209-22, (E)-1-(4-(dimethylamino)but-2-enoyl)-3-hydroxy-N-(5-methylthiophen-2-yl)azetidine-3-carboxamide]
10	CN(C)CC#CC(=O)N1CC(C(=O)Nc2csc3ccccc23)C1 [XS224-118, N-(benzo[b]thiophen-3-yl)-1-(4-(dimethylamino)but-2-ynoyl)azetidine-3-carboxamide]
48	CN(C)C/C=C/C(=O)N1C2CC1CN(C(=O)C1CCCCC1)C2 [XS190-129, (E)-1-(3-(cyclohexanecarbonyl)-3,6-diazabicyclo[3.1.1]heptan-6-yl)-4-(dimethylamino)but-2-en-1-one]
60	CCCC(=O)N1CC2CC(C1)N2C(=O)/C=C/CN(C)C [XS209-40, (E)-1-(3-butyryl-3,6-diazabicyclo[3.1.1]heptan-6-yl)-4-(dimethylamino)but-2-en-1-one]
75	CN(C)C/C=C/C(=O)N1C2CCC1C(=O)N(C1=CCCCC1)C2 (stereo not shown) [XS209-30, (E)-3-(cyclohex-1-en-1-yl)-8-(4-(dimethylamino)but-2-enoyl)-3,8-diazabicyclo[3.2.1]octan-2-one]
85	CC(C)c1ccc(C(=O)N2CC3CC(C2)N3C(=O)/C=C/CN(C)C)s1 [XS197-49, (E)-4-(dimethylamino)-1-(3-(5-isopropylthiophene-2-carbonyl)-3,6-diazabicyclo[3.1.1]heptan-6-yl)but-2-en-1-one]

Further lines, the compound ahead of its results:

Structure (SMILES)	% of OTUB1 modified [%]
CN(C)C/C=C/C(=O)N1CCN(c2cc3ccccc3s2)C(=O)C1 [XS175-179, (E)-1-(benzo[b]thiophen-2-yl)-4-(4-(dimethylamino)but-2-enoyl)piperazin-2-one]	100
Cc1ccc(C(=O)N2C3CC2CN(C(=O)/C=C/CN(C)C)C3)s1 [XS185-67, (E)-4-(dimethylamino)-1-(6-(5-methylthiophene-2-carbonyl)-3,6-diazabicyclo[3.1.1]heptan-3-yl)but-2-en-1-one]	15
Cc1ccc(N2CCN(C(=O)/C=C/CN(C)C)CC2=O)s1 [XS165-105, (E)-4-(4-(dimethylamino)but-2-enoyl)-1-(5-methylthiophen-2-yl)piperazin-2-one]	70
Cc1ccc(C(=O)N2CC3(CCN(C(=O)/C=C/CN(C)C)CC3)C2)s1 [XS185-66, (E)-4-(dimethylamino)-1-(2-(5-methylthiophene-2-carbonyl)-2,7-diazaspiro[3.5]nonan-7-yl)but-2-en-1-one]	20
Cc1ccc(N2CCN(C(=O)CCl)CC2=O)s1 [XS165-119, 4-(2-chloroacetyl)-1-(5-methylthiophen-2-yl)piperazin-2-one]	25
Cc1ccc(N2CCN(C(=O)/C=C/CN(C)C)CC2)s1 [XS165-172, (E)-4-(dimethylamino)-1-(4-(5-methylthiophen-2-yl)piperazin-1-yl)but-2-en-1-one]	<1
CN(C)C/C=C/C(=O)N1CCN(c2cc3c(s2)CCCC3)C(=O)C1 [XS175-186, (E)-4-(4-(dimethylamino)but-2-enoyl)-1-(4,5,6,7-tetrahydrobenzo[b]thiophen-2-yl)piperazin-2-one]	100
CN(C)C/C=C/C(=O)N1CCN(c2csc3ccccc23)C(=O)C1 [XS185-86, (E)-1-(benzo[b]thiophen-3-yl)-4-(4-(dimethylamino)but-2-enoyl)piperazin-2-one]	80
Cc1cnc(N2CCN(C(=O)CCl)CC2=O)s1 [XS165-123, 4-(2-chloroacetyl)-1-(5-methylthiazol-2-yl)piperazin-2-one]	100
Cc1ccc(N2CCCN(C(=O)/C=C/CN(C)C)CC2=O)s1 [XS175-120, (E)-4-(4-(dimethylamino)but-2-enoyl)-1-(5-methylthiophen-2-yl)-1,4-diazepan-2-one]	47
Cc1cccc(N2CCN(C(=O)/C=C/CN(C)C)CC2=O)n1 [XS165-109, (E)-4-(4-(dimethylamino)but-2-enoyl)-1-(6-methylpyridin-2-yl)piperazin-2-one]	10
C=CC(=O)N1CCN(c2ccc(C)s2)C(=O)C1 [XS154-91, 4-acryloyl-1-(5-methylthiophen-2-yl)piperazin-2-one]	52
Cc1ccc(NC(=O)C2CCCCN2C(=O)/C=C/CN(C)C)s1 (stereo not shown) [XS175-148, (E)-1-(4-(dimethylamino)but-2-enoyl)-N-(5-methylthiophen-2-yl)piperidine-2-carboxamide]	20
Cc1ccc(NC(=O)C2CCN(C(=O)CCl)CC2)s1 [XS185-4, 1-(2-chloroacetyl)-N-(5-methylthiophen-2-yl)piperidine-4-carboxamide]	100
C=CC(=O)N1CC2CCC(C1)N2c1cccc(C)c1 [XS165-54, 1-(8-(m-tolyl)-3,8-diazabicyclo[3.2.1]octan-3-yl)prop-2-en-1-one]	1
